Assay results taken from the supplement of paper PMC8149375.

Tests used:
Conditions in all cases: treatment: drug alone; 5 days
[1] = tested on: 786-O; experiment: GI50, drug alone; higher = less potent
Procedure: (§1)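 Primary HTS: 8 RCC cell lines treated with 8 doses (up to 10 uM) of each library drug alone for 5 days; viability read by CellTiter-Glo and normalised to DMSO. GI50 was fitted with XLfit (4-parameter), AUC is the area under the dose-response curve, and minimum viability is the lowest fraction of DMSO viability across doses.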

[2] = tested on: ACHN; experiment: GI50, drug alone; higher = less potent
Procedure: as §1

[3] = tested on: SN12C; experiment: GI50, drug alone; higher = less potent
Procedure: as §1

[4] = tested on: A498; experiment: GI50, drug alone; higher = less potent
Procedure: as §1

[5] = tested on: CAKI-1; experiment: GI50, drug alone; higher = less potent
Procedure: as §1

[6] = tested on: TK-10; experiment: GI50, drug alone; higher = less potent
Procedure: as §1

[7] = tested on: 769-P; experiment: GI50, drug alone; higher = less potent
Procedure: as §1

[8] = tested on: UO-31; experiment: GI50, drug alone; higher = less potent
Procedure: as §1

[9] = tested on: 786-O; experiment: AUC of dose-response viability curve, drug alone (arbitrary (AUC of normalised viability)); higher = less growth inhibition
Procedure: as §1

[10] = tested on: ACHN; experiment: as above
Procedure: as §1

[11] = tested on: SN12C; experiment: as above
Procedure: as §1

[12] = tested on: A498; experiment: as above
Procedure: as §1

[13] = tested on: CAKI-1; experiment: as above
Procedure: as §1

[14] = tested on: TK-10; experiment: as above
Procedure: as §1

[15] = tested on: 769-P; experiment: as above
Procedure: as §1

[16] = tested on: UO-31; experiment: as above
Procedure: as §1

[17] = tested on: 786-O; experiment: minimum viability across doses, drug alone, relative to DMSO (fraction); higher = less growth inhibition
Procedure: as §1

[18] = tested on: ACHN; experiment: as above
Procedure: as §1

[19] = tested on: SN12C; experiment: as above
Procedure: as §1

[20] = tested on: A498; experiment: as above
Procedure: as §1

[21] = tested on: CAKI-1; experiment: as above
Procedure: as §1

[22] = tested on: TK-10; experiment: as above
Procedure: as §1

[23] = tested on: 769-P; experiment: as above
Procedure: as §1

[24] = tested on: UO-31; experiment: as above
Procedure: as §1

| Structure (SMILES) | GI50, drug alone [1] [µM] | GI50, drug alone [2] [µM] | GI50, drug alone [3] [µM] | GI50, drug alone [4] [µM] | GI50, drug alone [5] [µM] | GI50, drug alone [6] [µM] | GI50, drug alone [7] [µM] | GI50, drug alone [8] [µM] | AUC of dose-response viability curve [9] | AUC of dose-response viability curve [10] | AUC of dose-response viability curve [11] | AUC of dose-response viability curve [12] | AUC of dose-response viability curve [13] | AUC of dose-response viability curve [14] | AUC of dose-response viability curve [15] | AUC of dose-response viability curve [16] | minimum viability across doses [17] | minimum viability across doses [18] | minimum viability across doses [19] | minimum viability across doses [20] | minimum viability across doses [21] | minimum viability across doses [22] | minimum viability across doses [23] | minimum viability across doses [24] |
| --- | --- | --- | --- | --- | --- | --- | --- | --- | --- | --- | --- | --- | --- | --- | --- | --- | --- | --- | --- | --- | --- | --- | --- | --- |
| COc1cc(Nc2ncc(F)c(Nc3ccc4c(n3)N(COP(=O)([O-])[O-])C(=O)C(C)(C)O4)n2)cc(OC)c1OC.[Na+].[Na+] | 1.24 | 0.973 | 3.32 | > 10 | 1.02 | 5.18 | 5.08 | 9.63 | 2.1 | 2.42 | 2.73 | 3.85 | 2.49 | 2.53 | 3.1 | 4 | 0.125 | 0.0693 | 0.303 | 0.898 | 0.035 | 0.418 | 0.119 | 0.0974 |
| CNC(=O)c1ccc(C)c(-n2c(C)cc(OCc3ccc(F)cc3F)c(Br)c2=O)c1 | < 0.003 | 4.72 | > 10 | > 10 | > 10 | > 10 | > 10 | > 10 | 1.88 | 2.53 | 2.94 | 4.54 | 3.1 | 2.51 | 3.15 | 3.74 | 0.437 | 0.464 | 0.738 | 1.12 | 0.705 | 0.596 | 0.765 | 0.835 |
| CCc1cccc(CC)c1NC(=O)N1Cc2[nH]nc(NC(=O)c3ccc(N4CCN(C)CC4)cc3)c2C1 | 0.915 | 3.39 | 2.15 | > 10 | 2.92 | 5.38 | > 10 | > 10 | 2.21 | 2.85 | 2.76 | 3.29 | 2.76 | 2.92 | 3.41 | 3.85 | 0.0395 | 0.233 | 0.238 | 0.679 | 0.262 | 0.336 | 0.87 | 0.811 |
| CN(c1ncccc1CNc1nc(Nc2ccc3c(c2)CC(=O)N3)ncc1C(F)(F)F)S(C)(=O)=O.O=S(=O)(O)c1ccccc1 | 0.21 | 2.59 | 3.88 | 7.73 | 5.15 | 4.46 | 4.89 | 4.55 | 1.79 | 2.86 | 2.94 | 3.68 | 3.34 | 2.8 | 3.06 | 3.81 | 0.00443 | 0.0138 | 0.0169 | 0.018 | 0.0631 | 0.132 | 0.0576 | 0.0117 |
| O=C1NC(=O)C(c2ccccc2[N+](=O)[O-])=C1Nc1ccc(O)c(Cl)c1 | > 10 | > 10 | > 10 | > 10 | > 10 | > 10 | > 10 | > 10 | 2.33 | 3.39 | 3.05 | 3.58 | 3.4 | 3.02 | 3.29 | 4 | 0.559 | 0.879 | 0.802 | 0.922 | 0.869 | 0.804 | 0.898 | 0.634 |
| CC(=O)NCC(=O)N1[C@H]2CC[C@H]1c1cc(Nc3ncc(C(F)(F)F)c(NC4CCC4)n3)ccc12 | 0.0151 | 0.0806 | 0.557 | 4.77 | 0.173 | 0.725 | 0.375 | 2.64 | 0.907 | 1.5 | 2.12 | 3.32 | 1.81 | 2.18 | 2.09 | 2.54 | 0.0093 | 0.0112 | 0.0115 | 0.0256 | 0.123 | 0.128 | 0.0288 | 0.0196 |
| OCCn1cc(-c2cnc3nnn(Cc4ccc5ncccc5c4)c3n2)cn1 | > 10 | > 10 | > 10 | > 10 | > 10 | > 10 | > 10 | > 10 | 4 | 2.48 | 3.37 | 4.04 | 2.32 | 3.18 | 3.3 | 4.37 | 1.01 | 0.542 | 0.879 | 0.984 | 0.615 | 0.804 | 0.883 | 1.15 |
| CCn1c(N)c(C(=O)NC)c(=O)c2ccc(C#C[C@@](C)(O)COC)nc21 | > 10 | > 10 | > 10 | > 10 | > 10 | > 10 | > 10 | > 10 | 3.31 | 3.52 | 3.44 | 3.88 | 3.62 | 3.45 | 3.92 | 4.24 | 0.869 | 0.909 | 0.849 | 0.887 | 0.845 | 0.9 | 1.02 | 0.992 |
| CNC(=O)c1nn(C)c2c1C(C)(C)Cc1cnc(Nc3ccc(N4CCN(C)CC4)cc3)nc1-2 | 0.366 | 0.0953 | 0.957 | 4.8 | 0.174 | 0.311 | 1 | 1.33 | 2.22 | 1.53 | 2.54 | 3.76 | 1.81 | 2.06 | 2.48 | 2.64 | 0.00535 | 0.0129 | 0.0145 | 0.0273 | 0.0591 | 0.177 | 0.0249 | 0.0155 |
